Assay results as given in patent US12577232B2, “N-heterocycle substituted tryptamine derivatives and methods of using” (ENVERIC B[…] INC., priority 2024, dated 2026).

Assays:
[1] = after intravenous (and oral) psilocybin administration (Raithatha et al., 2023); cited from earlier work
[2] = system: stressed C57BL/6-Elite mice; assay: Mouse marble burying (MB) assay to assess anxiolytic potential; format: in vivo; conditions: i.p., psilocin 3 mg/kg, compound (XV) 10 mg/kg; vs Vehicle+Stress
Procedure: Marble burying behavior is used to measure the level of anxiety in a rodent when it encounters unfamiliar objects (Deacon, 2006, Nature Protocols 1:122-124). This assay is routinely applied to the study of chronically stressed mice, where drug candidates are evaluated for an ability to diminish stress-induced, anxiety-like behaviours (e.g., Wang et al., ACS Chem. Neurosci. 14:977-987). Positive results in this assay may be interpreted as an indication of therapeutic (anxiolytic) potential in the treatment of various psychiatric disorders. Herein, we applied the marble burying model to investigate whether selected drugs could alleviate anxiety behaviour in stressed mice.
All animal protocols were approved by the University of Calgary Animal Care and Use Committee. C57BL/6-Elite mixed sex mice were obtained from Charles River Laboratories (Toronto, Canada) at 8-9 weeks old. […]
On the testing days, 10 glass marbles (approx. 15 mm in diameter) were evenly spaced on 5 cm of wood-chip bedding (lightly tamped down to make a flat and even surface). […] The number of marbles buried to ⅔rds their depth was measured. Fully buried marbles were counted as 1 and partially (at least ⅔rds) buried marbles were counted as 0.5. […]

5-HT2A receptor [3] = molecular target: T1, 5-HT2A receptor (Homo sapiens, UniProt P28223); assay: Functional cell-based 5-HT2A assay, agonism mode (CHO-K1/5-HT2A, Fluo-8 calcium flux); conditions: CHO-K1/5-HT2A cells
T1 construct: purchased PerkinElmer ES-313-M400UA
Procedure: Herein, functional, cell-based assays were conducted to determine (1) agonist potency and efficacy of drugs at the 5-HT2A receptor (agonist mode), and (2) antagonist potency at the 5-HT2A receptor (antagonist mode).
All cells were grown and maintained as a monolayer in Ham's F12 nutrient mix supplemented with 10% fetal bovine serum (FBS) and 400 μg/mL geneticin (G418) all from ThermoFisher Scientific and used according to the manufacturer's instructions. Cells were cultured and incubated at 37° C. in a humidified oxygen atmosphere with 5% CO2. To evaluate the activation of 5-HT2A signal transduction, cells were first seeded in tissue culture-treated, black-walled, clear-bottom 96-well plates (Thermo Scientific) at a density of 40,000 cells/well in 100 pl Ham's F12 nutrient mix supplemented with 2% FBS. Cells were cultured for 24 h in a humidified incubator at 37° C. and 5% CO2. Cells were then loaded with Fluo-8 calcium indicator dye for 1 h at 37° C. and an additional 30 min at room temperature as per the manufacturer's protocol. […] Kinetic increases in intracellular calcium levels were measured immediately after addition of test compounds every 6.4 s for a total of 3 min using the FlexStation 3 multimode microplate reader and SoftMax Pro 7.1 analysis software (Molecular Devices, moleculardevices.com). […] EC50 values were calculated from the normalized data from GraphPad PRISM software.

5-HT2A receptor [4] = molecular target: T1, 5-HT2A receptor; assay: Functional cell-based 5-HT2A assay, antagonism mode (CHO-K1/5-HT2A, 100 nM serotonin, calcium flux); conditions: CHO-K1/5-HT2A cells, with 100 nM serotonin
Text: A variety of 5-HT2A receptor engagement modes have been correlated with positive outcomes in the treatment of neurological disorders. While agonism is associated with a host of favourable effects, antagonizing the 5-HT2A receptor is also an attractive pharmacological approach. For example, antagonism is known to alleviate both dyskinesisa and psychosis in Parkinson's Disorder and holds promise for other psychiatric diseases (Mestre et al., 2013, Expert Opin. Investig. Drugs 22:411-421). Similarly positive outcomes are noted for inverse agonists (Cummings et al., 2014, Lancet, 383:533-540; Roberts, 2006, Curr. Opin. Invest. Drugs 7:653-660). […]
Stimulation of 5-HT2A coupled to the Gq family proteins leads to activation of the phospholipase C (PLC) pathway, ultimately resulting in the accumulation of cytosolic calcium (Cussac et al., Europ. J. Pharmacol., 2008, 594 (1-3), 32-38). […] Kinetic increases in intracellular calcium levels were measured immediately after addition of ligands every 6.4 s for a total of 3 min using the FlexStation 3 multimode microplate reader and SoftMax Pro 7.1 analysis software (Molecular Devices, moleculardevices.com). […] IC50 values were calculated from the normalized data from GraphPad PRISM software. […]

[5] = system: stressed C57BL/6-Elite mice; assay: Mouse sucrose preference (SP) assay to assess antidepressant potential; format: in vivo; conditions: i.p., psilocin 3 mg/kg, compound (XV) 10 mg/kg; one day after administration
Procedure: Reduced intake of pleasurable substances, e.g., of sucrose water, is a validated behavioral measure of anhedonic/depressive-like state in rodents (Moreau et al., 1992, Eur. Neurpsychopharmocol. 2:43-49; Liu et al., 2018, Nature Protocols 13:1686-1698). […] In the SP assay, cohorts of mice are pre-stressed, leading to a depressed state. The ability of drugs to rescue this state are evaluated.
All animal protocols were approved by the University of Calgary Animal Care and Use Committee. C57BL/6-Elite mixed sex mice were obtained from Charles River Laboratories (Toronto, Canada) at 8-9 weeks old. Mice were maintained on a 12:12 h light/dark schedule (lights on at 07:00 hours) with ad libitum access to food and water and group-housed until 2 days prior to the start of the mild chronic stress paradigm, then mice were single-housed. […]
Mice were introduced to 1% sucrose solution in their drinking water for 24 hrs for 2 days prior to initial sucrose preference testing to reduce impact of novelty. […] The consumption in water, sucrose solution, and total intake of liquids was measured by weighing each bottle before and after the 24-hr experiment. The preference for sucrose was calculated as a percentage of the consumed sucrose solution from the total intake of both water and sucrose solutions. […]

T1 sequence (P28223 whole entry): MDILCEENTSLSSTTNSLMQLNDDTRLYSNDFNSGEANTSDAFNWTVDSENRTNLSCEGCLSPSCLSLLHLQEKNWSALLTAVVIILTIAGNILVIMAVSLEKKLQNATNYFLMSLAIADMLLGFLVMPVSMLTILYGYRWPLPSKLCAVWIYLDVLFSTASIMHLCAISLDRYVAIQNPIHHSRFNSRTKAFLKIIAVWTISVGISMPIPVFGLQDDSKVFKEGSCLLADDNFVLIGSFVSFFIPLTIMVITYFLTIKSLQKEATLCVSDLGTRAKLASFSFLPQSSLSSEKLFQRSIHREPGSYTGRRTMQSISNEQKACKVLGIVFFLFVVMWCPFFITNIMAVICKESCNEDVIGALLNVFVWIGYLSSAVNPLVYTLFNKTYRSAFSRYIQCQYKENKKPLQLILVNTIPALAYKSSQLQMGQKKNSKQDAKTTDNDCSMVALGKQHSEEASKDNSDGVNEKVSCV

Structure (SMILES): CN(C)CCc1c[nH]c2cccc(O)c12 [psilocin, reference compound]
- persistence in plasma [1]: > 8 h
- anxiety-linked (marble burying) behavior in stressed mice [2]: rescued
- engagement at the 5-HT2A receptor, agonist mode (5-HT2A receptor [3]): agonism
- engagement at the 5-HT2A receptor, antagonist mode (5-HT2A receptor [4]): antagonism
- sucrose preference behaviour in stressed mice vs no drug control [5]: significantly elevated
